Source: patent US12109176B1, “Effect of glycerol on biofilm forming bacteria and fungi that changes the microbes sensitivity to pro and anti-biofilm non-toxic, non-bonded plasma amino acids and amino acid derivatives” (priority 2023, dated 2024)
“Also recorded” adds a separate entry of the source.

Columns and labels:
[1] = tested on: bacterial (S. aureus) biofilm and fungal biofilm (C. albicans); experiment: Biofilm inhibition assay, bacterial and fungal taken together; format: cell-based; conditions: for Neutral (square: Inhibition Biofilm Assay): symbol marks the assay
[2] = Thermal degradation in hot aqueous solution; format: physicochemical; conditions: water at about 90 C. to 100 C.
Description: In order to promote the dissolution of the various amino acids in water, the water is usually maintained at a temperature of about 90 C. to 100 C.

[3] = tested on: bacterial and fungal biofilm; experiment: In vitro testing on bacterial and fungal biofilm (assay not told apart); format: cell-based; conditions: for effect on bacterial and fungal biofilm (in words): in vitro testing
Description: (§1) Two types of biofilm assays were performed: an inhibition assay and a disruption assay. The inhibition assay assesses the compound's ability to prevent biofilm development, while the disruption assay assesses the compound's ability to break up an existing mature biofilm.
(§2) All bacterial biofilm solutions were prepared in Tryptic Soy Broth (TSB), supplemented with 1% glucose (henceforth referred to as TSB-G). All subsequent procedures were performed in a manner that maintained sterility. A solution of each amino acid or an amino acid derivative to be tested was prepared in weight to volume concentrations ranging from 0.1-5.0%. Amino acids and amino acid derivatives were also tested in combinations. Compound solutions were homogenized with gentle agitation in the dark (4° C., 24 hours) before use.
(§3) 32 Amino acids and 2 amino acid derivatives of the amino acid serine that occur freely in human blood were tested. […] 31 of the 32 amino acids that were tested were the L-Isomers. Glycine has no stereoisomers. The 2 amino acid derivatives, ethanolamine and phosphoethanolamine were also tested. All biofilm assays were performed using 384-well non-tissue culture-treated polystyrene plates. The fungal species tested are as follows: Candida albicans, Candida guilliermondii, Candida parapsilosis, Candida glabrata, Candida tropicalis and Candida dubliniensis. The bacterial species tested are as follows: Staphylococci (standard wild type and methicillin-resistant strain USA300), Escherichia coli, Pseudomonas aeruginosa and Staphylococcus epidermidis.
(§4) Fungal strains were streaked on Yeast Peptone Dextrose (YPD) agar plates and incubated at 30° C. for 48 hours. A single colony from each strain to be tested was inoculated into YPD broth and grown for 12 hours at 30° C., shaking at 225 rpm. […] The cells were allowed to adhere to the plate for 90 minutes at 37° C. with shaking (350 rpm). […] The plate was further incubated for 24 hours at 37° C. with shaking (350 rpm). Media was carefully aspirated and the biofilm was measured by optical density at 600 nm. […] The cells were allowed to adhere to the plate for 90 minutes at 37° C. with shaking (350 rpm). […] The plate was further incubated for 24 hours at 37° C. with shaking (350 rpm). […] The plate was further incubated for 24 hours at 37° C. with shaking (350 rpm). Media was carefully aspirated, and the biofilm was measured by optical density at 600 nm.
(§5) Bacterial strains were streaked on Blood Agar plates (5% sheep blood in Tryptic Soy Broth) and incubated at 37° C. for 24 hours. A single colony from each strain to be tested was inoculated in a TSB broth and grown for 12 hours, at 37° C. with shaking (225 rpm). For the bacterial biofilm inhibition assays, 1 μL of saturated overnight cell culture was added to either 80 μL of TSB-G, or TSB-G supplemented with the amino acid compound solution to be tested, in a 384-well plate. The cells were allowed to adhere to the plate for 60 minutes at 37° C. without shaking. The media was carefully aspirated and 80 μL of TSB-G, or TSB-G supplemented with the amino acid compound solution was added to the plate. The plate was further incubated for 24 hours at 37° C. without shaking. Media was carefully aspirated and the biofilm was measured by optical density at 600 nm. Eight or twelve replicates were performed for each tested condition and the reported values are normalized to the control (TSB-G media only). For the bacterial biofilm disruption assays, 80 µL of TSB-G was added to the plate, along with 1 μL of overnight cell culture. The cells were allowed to adhere to the plate for 60 minutes at 37° C. with no shaking. The media was carefully aspirated and 80 μL of TSB-G was added to the plate. The plate was further incubated for 24 hours at 37° C. with no shaking. Media was carefully aspirated from the mature biofilm and 80 μL of TSB-G, or TSB-G supplemented with the amino acid to be tested, was gently added to the plate.

[4] = tested on: bacterial (S. aureus) biofilm; experiment: Bacterial biofilm disruption assay; format: cell-based, Staphylococcus aureus
[5] = tested on: bacterial (S. aureus) biofilm; experiment: Bacterial biofilm inhibition assay; format: cell-based, Staphylococcus aureus
[6] = tested on: bacterial (S. aureus) biofilm and fungal biofilm (C. albicans); experiment: Biofilm disruption assay, bacterial and fungal taken together; format: cell-based
Description: as §1, §2, §3, §4, §5

fungal biofilm = experiment: In vitro testing on fungal biofilm (inhibition and/or disruption); format: cell-based; conditions: in vitro testing
[7] = tested on: fungal biofilm (C. albicans); experiment: Fungal biofilm disruption assay; format: cell-based, Candida albicans
bacterial biofilm = experiment: In vitro testing on bacterial biofilm (inhibition and/or disruption); format: cell-based; conditions: in vitro testing
[8] = tested on: fungal biofilm (C. albicans); experiment: Fungal biofilm inhibition assay; format: cell-based, Candida albicans
Description: as §1, §2, §3, §4

[9] = in vivo
[10] = Table F, in the presence of a sufficient concentration of glycerol
[11] = Table D, bacterial and fungal biofilm

SMILES: NC(=O)CC[C@H](N)C(=O)O [Glutamine, L-glutamine]
- Neutral (square: Inhibition Biofilm Assay) ([1]; Table D, Neutral = no effect on the biofilm): ▪ (Single square [ie. ▪] signifies little effect on the Inhibition Biofilm Assay (from about 10 to less than 30%))
- Neutral (square: Inhibition Biofilm Assay) ([1]; Table E, in the absence of an infusion of glycerol): ▪ (Single square [ie. ▪] signifies little effect on the Inhibition Biofilm Assay (from about 10 to less than 30%))
- Neutral (square: Inhibition Biofilm Assay) [1, 10]: ▪ (Single square [ie. ▪] signifies little effect on the Inhibition Biofilm Assay (from about 10 to less than 30%))
- thermal stability in aqueous solution [2]: too susceptible to thermal degradation

SMILES: N[C@@H](CS)C(=O)O [Cysteine, L-cysteine]
- effect on bacterial and fungal biofilm (in words) [3]: potent antibiofilm effect; also recorded: strong antibiofilm effect; also recorded: activity against both bacterial and fungal biofilm
- concentration of maximum (ideal) antibiofilm effect ([3]; tested on its own, without glycerol): 0.5%
- Reduce or Inhibit B Biofilm (dots: Disruption Biofilm Assay) ([4]; Table D, 0.1 to 5.0%): ●● (Two dots [ie. ●●] signifies a major effect (greater than about 50%), on the Disruption Biofilm Assay)
- Reduce or Inhibit B Biofilm (dots: Disruption Biofilm Assay) [4, 10]: ●● (Two dots [ie. ●●] signifies a major effect (greater than about 50%), on the Disruption Biofilm Assay)
- Reduce or Inhibit B Biofilm (squares: Inhibition Biofilm Assay) ([5]; Table D, 0.1 to 5.0%): ▪▪ (Two squares [ie. ▪▪] signifies a major effect (greater than about 50%), on the Inhibition Biofilm Assay)
- Reduce or Inhibit B Biofilm (squares: Inhibition Biofilm Assay) [5, 10]: ▪▪ (Two squares [ie. ▪▪] signifies a major effect (greater than about 50%), on the Inhibition Biofilm Assay)
- Reduce Both (dots: Disruption Biofilm Assay) [6, 11]: ●● (Two dots [ie. ●●] signifies a major effect (greater than about 50%), on the Disruption Biofilm Assay)
- Reduce Both (dots: Disruption Biofilm Assay) [6, 10]: ●● (Two dots [ie. ●●] signifies a major effect (greater than about 50%), on the Disruption Biofilm Assay)
- effect on fungal biofilm (in words) (fungal biofilm): antifungal biofilm effects
- Reduce or Inhibit F Biofilm (dots: Disruption Biofilm Assay) ([7]; Table D, 0.1 to 5.0%): ●● (Two dots [ie. ●●] signifies a major effect (greater than about 50%), on the Disruption Biofilm Assay)
- Reduce or Inhibit F Biofilm (dots: Disruption Biofilm Assay) [7, 10]: ●● (Two dots [ie. ●●] signifies a major effect (greater than about 50%), on the Disruption Biofilm Assay)
- effect on bacterial biofilm (in words) (bacterial biofilm): antibacterial biofilm effect
- Reduce Both (squares: Inhibition Biofilm Assay) [1, 11]: ▪▪ (Two squares [ie. ▪▪] signifies a major effect (greater than about 50%), on the Inhibition Biofilm Assay)
- Reduce Both (squares: Inhibition Biofilm Assay) [1, 10]: ▪▪ (Two squares [ie. ▪▪] signifies a major effect (greater than about 50%), on the Inhibition Biofilm Assay)
- Reduce or Inhibit F Biofilm (squares: Inhibition Biofilm Assay) ([8]; Table D, 0.1 to 5.0%): ▪▪ (Two squares [ie. ▪▪] signifies a major effect (greater than about 50%), on the Inhibition Biofilm Assay)
- Reduce or Inhibit F Biofilm (squares: Inhibition Biofilm Assay) [8, 10]: ▪▪ (Two squares [ie. ▪▪] signifies a major effect (greater than about 50%), on the Inhibition Biofilm Assay)

SMILES: OCC(O)CO [glycerol]
- effect on bacterial and fungal biofilm (in words) [3]: not found to have antibiofilm effect
- toxicity of the glycerol infusion [9]: non-toxic to humans
